Columns and labels:
HDAC isoforms = details: cited from earlier work
LNCaP = details: cited from earlier work
PC-3 = details: cited from earlier work
[1] = system: NCI 60 cell line assay (leukemia, non-small cell lung cancer, colon cancer, CNS cancer, melanoma, ovarian cancer, renal cancer, prostate cancer, and breast …); experiment: NCI 60 cell line assay, cell proliferation inhibition; type: cell-based, human; details: for anti-proliferative activity compared with largazole: 5 μM concentration; for inhibition of cell survival compared with largazole: at 5 μM; for inhibitory activity compared with largazole: at lower concentrations (below 5 μM)
Method: Understanding how these compounds affect cellular HDAC activity is important. Therefore, the biological effects of all these analogues were evaluated. As described in the examples, the analogues JA1-JA6, AA1-AA2, and RF1 were tested in the NCI 60 cell line assay, which includes leukemia, non-small cell lung cancer, colon cancer, CNS cancer, melanoma, ovarian cancer, renal cancer, prostate cancer, and breast cancer cell lines. […] The analogues were tested in the NCI 60 cell line assay using standard assay protocol. The NCI 60 cell line assay includes leukemia, non-small cell lung cancer, colon cancer, CNS cancer, melanoma, ovarian cancer, renal cancer, prostate cancer, and breast cancer cell lines. Results of the cell proliferation inhibition studies at a single dose of 10 μM are shown in FIGS. 16-21, and FIGS. 26-27, and results of the dose response studies for JA1, JA2, and J3 are shown in FIGS. 22-24. FIGS. 26-27 show the results of single dose response evaluations of AA1 and AA2, respectively, in the NCI 60 cell line assay.

SMILES: CCCCCCCC(=O)SCCC=CC1CC(=O)NCc2nc(cs2)C2=NC(C)(CS2)C(=O)NC(C(C)C)C(=O)O1 (centres unmarked) [C-2 epimer of largazole]
- inhibitory potency against HDAC isoforms (HDAC isoforms): sub-micromolar
- inhibition of viability compared with largazole (LNCaP): more potent than largazole
- inhibition of viability compared with largazole (PC-3): more potent than largazole

SMILES: CCCCCCCC(=O)SCC/C=C/[C@@H]1CC(=O)NCCOCCOCC(=O)N[C@@H](C(C)C)C(=O)O1 [JA1]
- anti-proliferative activity compared with largazole [1]: equivalent to largazole
- inhibition of cell survival compared with largazole [1]: nearly as effectively as largazole
- inhibitory activity compared with largazole [1]: less inhibitory activity

SMILES: CCCCCCCC(=O)SCC/C=C/[C@@H]1CC(=O)NCc2cccc(n2)-c2cccc(n2)C(=O)N[C@@H](C(C)C)C(=O)O1 [JA2]
- potency rank among the analogues [1]: most potent analogue
- anti-proliferative activity compared to largazole ([1]; at concentrations greater than 0.1 μM): higher anti-proliferative activity compared to largazole

SMILES: CCCCCCCC(=O)SCC/C=C/[C@@H]1CC(=O)NCc2cccc(n2)CN(C)CC(=O)N[C@@H](C(C)C)C(=O)O1 [JA3]
- anti-proliferative activity compared with largazole [1]: equivalent to largazole
- inhibition of cell survival compared with largazole [1]: nearly as effectively as largazole
- inhibitory activity compared with largazole [1]: less inhibitory activity
